Where “and” joins values, the source holds several entries; their conditions need not be identical. Equal values may be shown once.
Assays:
[1] = system: CON samples (healthy individuals); assay: FISH replication assay, cultures of healthy individuals (CON) with chromatin modifiers (Example 10); type: cell-based, human; conditions: cultured cells with chromatin modifier
Source text: (§1) Cultures were set up from 44 healthy individuals (hereafter called CON) and 20 hematological malignancy patients at diagnosis (hereafter termed CAD). For 20 of the CON samples and all of the CAD samples peripheral in addition to the setting up cultures in the regular growth medium, cultures were set up in medium containing 5-azacytidine (10^−7M; Sigma, USA; hereafter referred to as AZA) a demethylating agent. In addition, cultures from 6 CON and 10 CAD samples were set up in medium containing a deacetylating agents, either Trichostatin A (33 nM; Sigma, USA; hereafter referred to as TSA) or Sodium Butirate (1 nM; Sigma, USA; hereafter referred to as NB), two well described acetylating agents.
(§2) These samples were hybridized with two commercial probes: the AML1 probe (LSI 21, […]) and the α-satellite probe specific for centromere 17 (32-130017, hereafter marked as CEN17). The results are summarized in Table 1 giving the number of samples hybridized with each probe (N), Mean and standard deviation (stdev) as well as the p value obtained using two tailed student's t-test (Microsoft Office 98).

[2] = system: CAD samples (hematological malignancy patients at diagnosis); assay: FISH replication assay, cultures of hematological malignancy patients (CAD) with chromatin modifiers (Example 10); type: cell-based, human; conditions: for frequency (%) of SD cells, Mean: N = 10; for replication pattern in cells derived from cancer patients: cultured cells with chromatin modifier
Source text: as §1, §2

[3] = system: peripheral blood lymphocytes (PBL); assay: FISH replication assay on PBL of healthy donors treated with GCSF; type: in vivo, human; conditions: five days after GCSF treatment; for % SD after GCSF treatment, Average: PBL of healthy donors, n = 6 as printed; for % SD after GCSF treatment: PBL of individual healthy donors
Source text: Healthy subjects treated with GCSF. Seven first degree relatives (sibling or parent) of patients suffering from hematological malignancies who were candidates for donating peripheral blood stem cells agreed to participate in the study. PBL were collected before treatment with GCSF and five days after treatment, on the day of collecting cells for transplantation. Six donors were male, one female.
Comparison of synchrony in healthy subjects, cancer patients and GCSF-treated healthy donors. Bone marrow and PBL samples were obtained with informed consent from healthy control subjects and patients as detailed hereinabove. Samples were analyzed by FISH as described hereinabove.
It is believed that the SD cell percentage values are enhanced for a limited time and return to normal after cessation of GCSF treatment. The samples tested here were obtained five days after GCSF treatment. This period is usually chosen for obtaining cells for transplantation, because at the effect of GCSF is maximal five days after administration.

CCCC(=O)[O-].[Na+] [NB, Sodium Butirate]
replication pattern observed in normal genomes [1]: not affecting
frequency (%) of SD cells, Mean ([2]; AML1 locus, CAD + NB (1 nM)): Mean = 23.2%
frequency (%) of SD cells, Mean ([2]; CEN17 locus, CAD + NB (1 nM)): Mean = 19.6%
replication pattern in cells derived from cancer patients [2]: attenuate the replication pattern presented in cells derived from cancer patients towards the normal

CC(/C=C/C(=O)NO)=C\[C@@H](C)C(=O)c1ccc(N(C)C)cc1 [TSA, Trichostatin A]
replication pattern observed in normal genomes [1]: not affecting
frequency (%) of SD cells, Mean ([2]; AML1 locus, CAD + TSA (33 nM)): Mean = 24.2%
frequency (%) of SD cells, Mean ([2]; CEN17 locus, CAD + TSA (33 nM)): Mean = 20.3%
replication pattern in cells derived from cancer patients [2]: attenuate the replication pattern presented in cells derived from cancer patients towards the normal

B1: GCSF: hematopoietic growth factor given to donors of bone marrow cells to enhance the number of stem cells (protein, UniProt P09919 31-207, looked up)
Granulocyte …: TPLGPASSLPQSFLLKCLEQVRKIQGDGAALQEKLVSECATYKLCHPEELVLLGHSLGIPWAPLSSCPSQALQLAGCLSQLHSGLFLYQGLLQALEGISPELGPTLDTLQLDVADFATTIWQQMEELGMAPALQPTQGAMPAFASAFQRRAGGVLVASHLQSFLEVSYRVLRHLAQP
% SD after GCSF treatment, Average ([3]; 21q22 probe (D21S55)): 35.42%
% SD after GCSF treatment ([3]; 21q22 probe (D21S55)): 32% and 43% and 39% (2×) and 31% and 29% and 35%
% SD after GCSF treatment, Average ([3]; TP53 probe): 36.57%
% SD after GCSF treatment ([3]; TP53 probe): 34% (2×) and 41% and 38% and 36% (2×) and 37%

Reference: US6803195B1, “Facile detection of cancer and cancer risk based on level of coordination between alleles” (Ramot At Tel-Aviv University Ltd., priority 1999, dated 2004)
